Reference: publication PMC7238232, “Acamprosate Is a Substrate of the Human Organic Anion Transporter (OAT) 1 without OAT3 Inhibitory Properties: Implications for Renal Acamprosate Secretion and Drug–Drug Interactions” (Pharmaceutics, 2020)
Entries after “also recorded” stand apart in the source; their conditions may differ. Like-named read-outs stand apart in the source and are kept apart here.

What was measured:
HEK293-Flp-In OAT1 cells = test: CellTiter-Glo cell viability assay, OAT1 transfected cells; conditions: up to 3300 µM acamprosate; 3 h
OAT3 = target: T1, OAT3 (Homo sapiens, UniProt Q8TCC7); test: [3H]-E3S uptake and its inhibition in HEK293-Flp-In OAT3 cells; type: cell-based
T1 sequence (Q8TCC7 1-542): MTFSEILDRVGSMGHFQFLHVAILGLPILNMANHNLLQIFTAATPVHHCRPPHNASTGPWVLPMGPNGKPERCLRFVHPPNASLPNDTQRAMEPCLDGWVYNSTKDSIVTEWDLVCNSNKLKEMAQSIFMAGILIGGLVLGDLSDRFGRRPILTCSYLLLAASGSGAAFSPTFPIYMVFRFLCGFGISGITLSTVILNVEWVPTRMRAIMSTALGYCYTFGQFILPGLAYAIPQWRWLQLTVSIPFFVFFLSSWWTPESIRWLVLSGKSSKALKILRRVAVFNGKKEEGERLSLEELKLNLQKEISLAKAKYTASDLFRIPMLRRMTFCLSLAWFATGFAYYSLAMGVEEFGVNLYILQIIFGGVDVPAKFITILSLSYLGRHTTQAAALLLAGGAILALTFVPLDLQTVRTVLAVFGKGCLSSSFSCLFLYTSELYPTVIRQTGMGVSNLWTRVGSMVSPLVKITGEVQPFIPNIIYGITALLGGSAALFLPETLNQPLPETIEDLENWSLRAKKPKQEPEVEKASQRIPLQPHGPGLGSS
Method: All uptake experiments were performed on 24- or 96-well plates. Before the experiment initiation, the cells were incubated with either 500 or 200 µL∙well^−1 prewarmed buffer for 10 min at 37 °C in a microplate incubator (VWR International AB, Stockholm, Sweden), without shaking. […] The experiment was stopped by adding 200 µL∙well^−1 of ice-cold buffer and subsequent rinse three times with the same amount of buffer. In Lab. 1 the sample analysis of the OAT1/OAT3/mock studies consisted in removing the rinsing buffer and lysing the cells with 70 µL 1M NaOH, following by incubation for 60 min at 37 °C and 100 rpm. A total of 50 µL of cell lysate from each well was transferred to 96-well Luma plates bottom coated with dry scintillant. Then, 2∙20 µL of each donor and three 50 µL blank samples were applied on the same plate. The dry plates were covered with transparent seals and analyzed using a TopCount NXT Microplate Scintillation and Luminescence Counter (Perkin Elmer, Waltham, MA, USA). The remaining 20 µL cell lysate was neutralized with 20 µL 1M HCl∙well^−1, samples were mixed thoroughly and the total protein content in all the wells was measured using a BCA protein assay kit, microplate method, and a Tecan Safire II fluorometer (Tecan Austria GmbH, Grödig, Austria). For the experiments in Lab. 2, the cells were lysed by adding 200 µL 0.1% Triton X-100 and incubated for 5 min at 37 °C and 100 rpm. […] The total protein content was measured by using a BCA protein assay kit and a FLUOStar Omega fluorescence microplate reader (BMG Labtech, Ortenberg, Germany). The protein assay for the OAT3 and mock cell lines was performed in four independent wells of each cell line, seeded and treated in the same manner as the cells used in the uptake assay. For all the OAT1, OAT3, and mock isotope uptake studies, the radiolabelled tracer accumulation (pmol) in each well was calculated by first determining the activity of the isotope (DPM∙pmol^−1) from the radioactivity (DPM) of the donor sample divided by the theoretical isotope concentration (pmol), then dividing the total radioactivity in the well (DPM) to the specific activity of the isotope (DPM∙pmol^−1).
A range of preincubation solutions was prepared at the same concentrations of acamprosate applied in the inhibition assays. Acamprosate was dissolved in HBSS buffered with 10 mM HEPES and the pH was adjusted to 7.40 ± 0.01. The preincubation solutions were prewarmed to 37 °C and applied to the corresponding cells after removing the cell growth medium. The preincubation was done for 3 h, at 37 °C, without shaking. After the preincubation, the solutions were removed, and the inhibition experiment was performed as described in the Section 2.6.
The obtained intracellular amounts (pmol) were normalized to the assay time (min) and cell surface area (cm^2) or protein amount (mg protein) to obtain a term hereafter referred to as uptake rate. […] Assuming competitive interaction, equilibrium dissociation constants, Ki, were calculated from the IC50 value for each substrate/inhibitor pair, at substrate Km, using the Cheng–Prusoff equation [24].

HEK293-Flp-In OAT3 cells = test: CellTiter-Glo cell viability assay, OAT3 transfected cells; conditions: up to 3300 µM acamprosate; 3 h
[1] = no reference given; cited from earlier work
[2] = rats, cited from earlier work
[3] = Clinical pharmacokinetics in humans (literature); conditions: for Cmax,u: acamprosate, calculated

For `CC(=O)NCCCS(=O)(=O)O` [acamprosate, acetylhomotaurinate], the “decrease in cell viability” value (HEK293-Flp-In OAT1 cells) was at most 10%, the IC50 (OAT3) was over 10 mM and the “effect on uptake of [3H]-E3S in OAT3 expressing cells” value (OAT3; 0.02 µM [3H]-E3S, 200 µM E3S, 300 µM probenecid, 1000 or 10,000 µM acamprosate, Lab. 2) was “did not affect”. The “inhibition of [3H]-E3S uptake via OAT3, with and without 3 h preincubation” value (OAT3; all applied acamprosate concentrations, up to 10 mM) was “lack of inhibitory effect; also recorded: did not inhibit”, the IC50 (OAT3; read-out: IC50, Estrone-3-Sulfate, input for DDI index, Table A1) was over 10 mM and the “decrease in cell viability” value (HEK293-Flp-In OAT3 cells) was at most 10%. For the same compound, the logP [1] was −3.57, the pKa [1] was 1.83 and the “CLR, % of the initial CLR” value ([2]; 9.3 mg/kg acamprosate i.v. with 33.3 mg/kg probenecid) was 59%. For the same compound, the “CLR, % of the initial CLR” value ([2]; 9.3 mg/kg acamprosate i.v. with 66.6 mg/kg probenecid) was 45%, the “unbound acamprosate CLR with probenecid, compared to control” value [2] was 0.45 fold and the “increase in acamprosate AUC0∞ caused by probenecid” value ([2]; compared to control) was 2.2 fold. For the same compound, the “renal clearance (CLR)” value ([2]; intravenous 9.3 mg/kg acamprosate, without probenecid) was 0.35 L/h, the “Cmax,u” value ([3]; IV bolus, 333 mg) was 153 ± 38 µM and the “Cmax,u” value ([3]; IV bolus, 666 mg) was 214 ± 10 µM. For the same compound, the “Cmax,u” value ([3]; IV bolus, 710 mg) was 230 ± 64 µM, the “Cmax,u” value ([3]; IV bolus, 1420 mg) was 486 ± 106 µM and the “Cmax,u” value ([3]; IV bolus, 2130 mg) was 768 ± 149 µM. The “Cmax,u” value ([3]; oral solution, 333 mg) was 1.8 ± 0.8 µM, the “Cmax,u” value ([3]; oral solution, 666 mg) was 4.3 ± 1.4 µM and the “Cmax,u” value ([3]; oral solution, 1332 mg) was 5.0 ± 1.7 µM. The “Cmax,u” value ([3]; oral solution, 2664 mg) was 8.6 ± 4.1 µM, the “Cmax,u” value ([3]; oral tablet, 666 mg) was 1.4 ± 1.1 µM and the “Cmax,u” value ([3]; oral tablet, 1332 mg) was 1.5 ± 0.1 µM. The “contribution of active secretion to total CLR” value ([3]; estimated from CLR and GFR·fu) was “more than 44%”.
